Test results reported in patent US11977086B2, “Biomarker detection from breath samples” (Hound Labs, Inc., priority 2019, dated 2024).

Tests used:
[1] = THC in breath after smoking, samples collected with a Hound Labs device and analyzed by mass spectrometry; format: in vivo, human
[2] = pH>8; cited from earlier work
[3] = compared with THC; cited from earlier work

SMILES | measured amount of THC in breath sample indicative of recent usage ([1]; breath sample of 0.5 liters, usage within the three hours prior to collection) | baseline breath THC, maximum ([1]; chronic or frequent smokers who have not smoked for several hours) [pg/5 L breath] | maximum baseline breath THC per liter ([1]; chronic users, 12 pg/5 L converted to per liter) [pg/L] | time THC is detected in breath after smoking ([1]; on average, 430 tests, smoking indoors or outdoors, mass spectrometry) [h] | solubility versus pH [2] | resistance to oxidation [3]
CCCCCc1cc(O)c2c(c1)OC(C)(C)[C@@H]1CCC(C)=C[C@@H]21 [THC, tetrahydrocannabinol] | 1-10 picograms (pg) | ≤ 12 | ≤ 2.4 | 2 to 3 | higher solubility | –
CCCCCc1cc2c(c(O)c1C(=O)O)[C@@H]1C=C(C)CC[C@H]1C(C)(C)O2 [THCA] | – | – | – | – | – | higher resistance to oxidation
